Measured values as given in PubChem BioAssay (NCI).
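Cells were grown in 96-well plates and exposed to each compound for 48 hours at five concentrations; endpoints were interpolated linearly between bracketing concentrations, or set to the highest concentration if not reached. GI50 = concentration required for 50% inhibition of growth. TGI is the concentration that stops growth completely.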 Where a SMILES comes first, the peptide text is derived from it. The star is where a group is joined. Boc = CC(C)(C)OC(=O)*

How the values were obtained:
Test in all cases: DTP human tumour cell line panel, 48 h
[1] = system: 786-0 renal
[2] = system: A498 renal
[3] = system: A549 NSCLC
[4] = system: ACHN renal
[5] = system: CAKI-1 renal
[6] = system: CCRF-CEM leukemia
[7] = system: COLO 205 colon
[8] = system: DU-145 prostate
[9] = system: EKVX NSCLC
[10] = system: HCT-116 colon
[11] = system: HCT-15 colon
[12] = system: HL-60(TB) leukemia
[13] = system: HOP-62 NSCLC
[14] = system: HOP-92 NSCLC
[15] = system: HS 578T breast
[16] = system: HT29 colon
[17] = system: IGROV1 ovarian
[18] = system: K-562 leukemia
[19] = system: KM12 colon
[20] = system: LOX IMVI melanoma
[21] = system: M14 melanoma
[22] = system: MALME-3M melanoma
[23] = system: MCF7 breast
[24] = system: MDA-MB-231 breast
[25] = system: MDA-MB-435
[26] = system: MDA-N
[27] = system: MOLT-4 leukemia
[28] = system: NCI-H226 lung
[29] = system: NCI-H23 lung
[30] = system: NCI-H522 lung
[31] = system: NCI/ADR-RES ovarian
[32] = system: OVCAR-3 ovarian
[33] = system: OVCAR-4 ovarian
[34] = system: OVCAR-5 ovarian
[35] = system: OVCAR-8 ovarian
[36] = system: RPMI-8226 leukemia
[37] = system: RXF 393 renal
[38] = system: SF-268 CNS
[39] = system: SF-295 CNS
[40] = system: SF-539 CNS
[41] = system: SK-MEL-2 melanoma
[42] = system: SK-MEL-5 melanoma
[43] = system: SK-OV-3 ovarian
[44] = system: SN12C renal
[45] = system: SNB-19 CNS
[46] = system: SNB-75 CNS
[47] = system: SR leukemia
[48] = system: SW-620 colon
[49] = system: T-47D breast
[50] = system: TK-10 renal
[51] = system: UACC-62 melanoma
[52] = system: UO-31 renal
[53] = system: BT-549 breast
[54] = system: HCC-2998 colon
[55] = system: NCI-H460 lung
[56] = system: PC-3 prostate
[57] = system: UACC-257 melanoma
[58] = system: SK-MEL-28 melanoma
[59] = system: U251 CNS

CCOc1cc2c(c(OCC)c1O)CC[C@@H]1[C@@H]2CC[C@]2(C)[C@@H](O)CC[C@@H]12
TGI [1]: > 100 µM | TGI [2]: 41.6 µM | TGI [3]: > 100 µM | TGI [4]: 57.4 µM | TGI [5]: 32.1 µM | TGI [6]: > 100 µM | TGI [7]: 55.3 µM | GI50 [8]: 3.32 µM | TGI [8]: 37.4 µM | TGI [9]: > 100 µM | GI50 [10]: 0.801 µM | TGI [10]: 18.1 µM | TGI [11]: 14 µM | TGI [12]: 1.86 µM | TGI [13]: 40.5 µM | TGI [14]: 67.6 µM | TGI [15]: 95.1 µM | TGI [16]: 24.7 µM | TGI [17]: > 100 µM | TGI [18]: 23.7 µM | TGI [19]: 72.5 µM | TGI [20]: 17.1 µM | TGI [21]: > 100 µM | TGI [22]: 66.4 µM | TGI [23]: 53.2 µM | TGI [24]: 24.3 µM | TGI [25]: 3.05 µM | TGI [26]: 1.58 µM | TGI [27]: > 100 µM | TGI [28]: > 100 µM | TGI [29]: 41.4 µM | TGI [30]: 23.1 µM | TGI [31]: 46 µM | GI50 [32]: 0.0896 µM | TGI [32]: 3.08 µM | TGI [33]: > 100 µM | TGI [34]: > 100 µM | TGI [35]: > 100 µM | TGI [36]: 31.1 µM | TGI [37]: 17.1 µM | TGI [38]: 52.1 µM | TGI [39]: 13.1 µM | TGI [40]: 6.71 µM | TGI [41]: 83.7 µM | TGI [42]: 21.5 µM | TGI [43]: 57.5 µM | GI50 [44]: 4.84 µM | TGI [44]: 21.9 µM | TGI [45]: > 100 µM | TGI [46]: 10.6 µM | TGI [47]: 28 µM | TGI [48]: 41.7 µM | TGI [49]: 54.3 µM | TGI [50]: > 100 µM | TGI [51]: 27.5 µM | TGI [52]: 79.3 µM

COC(=O)[C@H](Cc1ccc(O)cc1)NC(=O)[C@H](Cc1ccc(O)cc1)NC(=O)OC(C)(C)C (Boc-Tyr-Tyr-OMe)
TGI [1]: > 100 µM | TGI [3]: > 100 µM | TGI [4]: > 100 µM | TGI [53]: > 100 µM | TGI [5]: > 100 µM | TGI [7]: > 100 µM | TGI [8]: > 100 µM | TGI [9]: > 100 µM | TGI [54]: > 100 µM | TGI [10]: > 100 µM | TGI [11]: > 100 µM | TGI [13]: > 100 µM | TGI [15]: > 100 µM | TGI [16]: > 100 µM | TGI [17]: > 100 µM | TGI [19]: > 100 µM | TGI [20]: > 100 µM | TGI [21]: > 100 µM | TGI [22]: > 100 µM | TGI [23]: > 100 µM | TGI [24]: > 100 µM | TGI [26]: > 100 µM | TGI [28]: > 100 µM | TGI [29]: > 100 µM | TGI [55]: > 100 µM | TGI [30]: > 100 µM | TGI [31]: > 100 µM | TGI [32]: > 100 µM | TGI [34]: > 100 µM | TGI [35]: > 100 µM | TGI [56]: > 100 µM | TGI [37]: > 100 µM | TGI [38]: > 100 µM | TGI [39]: > 100 µM | TGI [40]: > 100 µM | TGI [42]: > 100 µM | TGI [43]: > 100 µM | TGI [45]: > 100 µM | TGI [46]: > 100 µM | TGI [50]: > 100 µM | TGI [57]: > 100 µM | TGI [51]: > 100 µM | TGI [52]: > 100 µM

CCOC(=O)c1cccc(NC(=O)CI)c1
TGI [1]: 0.307 µM | TGI [2]: 4.72 µM | TGI [3]: 3.41 µM | TGI [4]: 1.99 µM | TGI [53]: 1.48 µM | TGI [5]: 1.07 µM | TGI [7]: 1.86 µM | TGI [8]: 3.34 µM | TGI [9]: 3.94 µM | TGI [54]: 4.34 µM | TGI [10]: 0.946 µM | TGI [13]: 2.44 µM | TGI [14]: 3.57 µM | TGI [16]: 0.646 µM | TGI [17]: 1.02 µM | TGI [19]: 3.66 µM | TGI [21]: 0.664 µM | TGI [22]: 2.98 µM | TGI [23]: 1.33 µM | TGI [24]: 2.91 µM | TGI [25]: 0.797 µM | TGI [26]: 0.472 µM | TGI [27]: 0.221 µM | TGI [29]: 0.521 µM | TGI [55]: 3.77 µM | TGI [30]: 0.347 µM | TGI [31]: 1.96 µM | TGI [32]: 0.759 µM | TGI [33]: 3.02 µM | TGI [34]: 3.07 µM | TGI [35]: 0.687 µM | TGI [56]: 2.39 µM | TGI [36]: 3.28 µM | TGI [37]: 2.74 µM | TGI [39]: 5.69 µM | TGI [40]: 1.31 µM | TGI [41]: 2.4 µM | TGI [58]: 5.86 µM | TGI [42]: 1.22 µM | TGI [43]: 2.26 µM | TGI [44]: 0.731 µM | TGI [45]: 9.39 µM | TGI [46]: 2.87 µM | TGI [47]: 0.0918 µM | TGI [48]: 1.64 µM | TGI [50]: 2.19 µM | TGI [59]: 1.35 µM | TGI [57]: 2.95 µM | TGI [51]: 1.87 µM | TGI [52]: 0.43 µM

Cc1cc(S(=O)(=O)/N=C(\[N-]S(=O)(=O)c2cc(Cl)sc2Cl)[n+]2ccc(N(C)C)cc2)c(S)cc1Cl
TGI [1]: > 100 µM | TGI [2]: 82.5 µM | TGI [4]: > 100 µM | TGI [5]: > 100 µM | TGI [6]: > 100 µM | TGI [8]: > 100 µM | TGI [9]: > 100 µM | TGI [54]: > 100 µM | TGI [10]: 55.5 µM | TGI [11]: > 100 µM | TGI [12]: > 100 µM | TGI [13]: > 100 µM | TGI [15]: > 100 µM | TGI [16]: > 100 µM | TGI [17]: > 100 µM | TGI [18]: > 100 µM | TGI [19]: > 100 µM | TGI [20]: > 100 µM | TGI [21]: 95.8 µM | TGI [23]: > 100 µM | TGI [24]: > 100 µM | TGI [25]: > 100 µM | TGI [26]: > 100 µM | TGI [27]: > 100 µM | TGI [28]: > 100 µM | TGI [29]: > 100 µM | TGI [55]: > 100 µM | TGI [30]: 86.1 µM | TGI [31]: > 100 µM | TGI [32]: > 100 µM | TGI [33]: > 100 µM | TGI [34]: > 100 µM | TGI [35]: > 100 µM | TGI [56]: > 100 µM | TGI [36]: > 100 µM | TGI [37]: > 100 µM | TGI [38]: > 100 µM | TGI [39]: > 100 µM | TGI [40]: > 100 µM | TGI [41]: > 100 µM | TGI [58]: > 100 µM | TGI [42]: > 100 µM | TGI [43]: > 100 µM | TGI [47]: 98.2 µM | TGI [48]: > 100 µM | TGI [49]: > 100 µM | TGI [50]: > 100 µM | TGI [59]: > 100 µM | TGI [57]: > 100 µM | TGI [52]: 56 µM
